Values quoted from earlier work as cited in patent US20230061908A1 (priority 2020, published 2023).

Settings: wide distribution to most tissues

For `CCC(CC)COC(=O)[C@H](C)N[P@](=O)(OC[C@H]1O[C@@](C#N)(c2ccc3c(N)ncnn23)[C@H](O)[C@@H]1O)Oc1ccccc1` [Remdesivir], the “crossing of the BBB (blood-brain barrier)” value is listed as “does not cross the BBB”.
